We go through two molecules from US9150638B2, “Factor XII inhibitors for treating interstitial lung disease” (Justus-Liebig-Universität Giessen, priority 2010, dated 2015).

One test concerns FXII promoter. The test can be described thus: FXII promoter luciferase assay in NIH3T3 cells. The note with it: pGL3-299 construct; inhibitor 1 h prior to 10 ng/ml TGF-β1.
Test [1] deals with Smad 3. The test can be described thus: Western blot of Smad 3 phosphorylation in TGF-β1 treated HLF. The class given is cell-based, human. How it is done: (§1) Proteins separated on SDS polyacrylamide gel were transferred to a PVDF membrane (Amersham Biosciences, Freiburg, Germany) using wet transfer technique in transfer buffer (25 mM Tris, 192 mM Glycine, 20% (v/v) Methanol) for 1 h at 100V. After blocking with 5% non-fat dry milk in tris-buffered saline (TBS; 25 mM Tris-Cl, 150 mM NaCl, pH 7.5) containing 0.1% (v/v) Tween 20 (TBS-T), the membranes were incubated at 4° C. overnight with appropriate primary antibody diluted in 1% BSA in TBS-T. After 1 h incubation with peroxidase-labelled secondary antibody (all from Dako, Gostrup, Denmark) proteins were detected using ECL Plus Kit (Amersham Biosciences, Freiburg, Germany). To determine the amounts of protein loaded on the gel, blots were in 1 hour (stripping buffer: 100 mM Glycine, 1% HCl) and reprobed using an anti-β-actin or appropriate anti-pan antibody.

The test system of the next test is JNK. The test can be described thus: Western blot of JNK activity in TGF-β1 treated HLF. It is filed as cell-based, human.
Test [2] relates to Smad 3. The test can be described thus: TGF-β1 driven translocation of phospho-Smad 3 to the nucleus in HLF. It is filed as cell-based, human. The procedure: as §1, with “antibody. […]” for “antibody.”
[…]. […] After boiling, the DNA-bound proteins were analyzed by Western blot using rabbit anti-phospho Smad 3 antibody (Cell Signaling). […]

The test system of another test is FXII. The experiment in a line: TGF-β1-induced FXII expression in HLF. It is filed as cell-based, human. The following applies: HLF treated with inhibitor 1 h prior to TGF-β1 for 48 h. How it is done:
Human lung specimens of the pulmonary parenchyma and mouse lungs were chopped into <1 mm^3 pieces. The minced pieces were washed twice with PBS and then plated in 100-mm dishes (Greiner-bio-one, Frickenhausen, Germany). The specimens were cultured with Dulbecco's modified Eagle's medium (DMEM; Invitrogen, Karlsruhe, Germany) supplemented with 10% fetal calf serum (FCS; HyClone, South Logan, UT), and 1% penicillin/streptomycin (Invitrogen) in humidified atmosphere of 5% CO2 at 37° C. Purity of isolated fibroblasts was verified by positive staining for vimentin, fibronectin and collagen IV. All experiments were carried out with lung fibroblasts from passages 3-4. The mouse NIH3T3 fibroblasts were cultured in DMEM supplemented with 10% FCS, and 1% penicillin/streptomycin in humidified atmosphere of 5% CO2 at 37° C.
as §1
Pre-designed, commercially available siRNA sequences directed against human Smad 3 (Dharmacon, Chicago, Ill.), human JNK1 (Abnova, Heidelberg, Germany), and an universal negative-control siRNA (Ambion, Austin, Tex.) were employed. Cells were treated with siRNA (250 nM each) using the X-treme Gene siRNA Transfection Reagent (Roche). The siRNA-mediated downregulation of the target genes was assessed 72 h after transfection by Western blotting.

For a further test, the system named is Smad 3-SBE-272. The experiment in a line: ChIP of the Smad 3-SBE-272 complex. The class given is cell-based, human. The procedure: ChIP was performed using Chromatin Immunoprecipitation Assay Kit from Millipore (Schwalbach, Germany) according to manufacturer's instruction. […] The cross-linked chromatin was then prepared and sonicated to an average size of 500-800 bp. The DNA fragments were immunoprecipitated with rabbit anti-Smad 3 antibody (Cell Signaling) or IgG isotype control overnight at 4° C. After reversal of cross-linking, the immunoprecipitated chromatin was amplified by PCR using following primers: human FXII-299 bp forward: [NT] ID NO:25); human FXII-299 bp reverse: [NT] ID NO:26).

Another test addresses T1, FXIIa (Homo sapiens, UniProt P00748).
T1 sequence (P00748 373-615 limits assumed): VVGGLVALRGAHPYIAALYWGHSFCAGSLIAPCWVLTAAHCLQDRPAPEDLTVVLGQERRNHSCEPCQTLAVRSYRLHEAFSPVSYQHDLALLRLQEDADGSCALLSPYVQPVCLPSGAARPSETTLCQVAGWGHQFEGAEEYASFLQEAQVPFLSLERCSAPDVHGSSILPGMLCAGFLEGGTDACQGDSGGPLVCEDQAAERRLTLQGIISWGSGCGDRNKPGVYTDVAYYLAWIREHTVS
T1 sequence (P00748 20-372 partner limits assumed): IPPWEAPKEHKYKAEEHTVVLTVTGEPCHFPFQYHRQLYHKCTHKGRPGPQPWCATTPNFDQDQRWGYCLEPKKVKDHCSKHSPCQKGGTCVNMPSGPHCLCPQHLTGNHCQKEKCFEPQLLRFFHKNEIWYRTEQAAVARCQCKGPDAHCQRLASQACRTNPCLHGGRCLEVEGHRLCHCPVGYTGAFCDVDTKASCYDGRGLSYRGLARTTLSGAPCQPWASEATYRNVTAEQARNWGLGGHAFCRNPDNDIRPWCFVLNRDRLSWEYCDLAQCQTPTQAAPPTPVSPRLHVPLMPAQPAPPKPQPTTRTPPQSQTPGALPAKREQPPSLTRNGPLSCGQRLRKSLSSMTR
The following applies: cited from earlier work.

As for `NC(=O)c1ccc(-c2nc(-c3ccc4c(c3)OCO4)c(-c3ccccn3)[nH]2)cc1` [SB431542], the “TGF-β1 driven luciferase activity” value in the test with FXII promoter is on record as “strongly reduced”. Besides, the “Smad 3 phosphorylation in response to TGF-β1” value in the test with Smad 3 [1] was “attenuated”. The “JNK activity / JNK1 phosphorylation in response to TGF-β1” value with JNK is “attenuated”. Moreover, the “TGF-β1-induced Smad 3 translocation to the nucleus” value with Smad 3 [2] (HLF pretreated with inhibitor, TGF-β1 1 h) is reported as “completely blocks”. In addition, the “accumulation of Smad 3 in the nucleus, inhibitor alone” value in the test on Smad 3 [2] (HLF, without TGF-β1, data not shown) is “did not affect”. Besides, the “FXII expression in response to TGF-β1 (Western blot)” value in the test with FXII was “reduction of FXII expression”. Besides, the “TGF-β1 induced Smad 3-DNA complex formation (ChIP)” value in the test on Smad 3-SBE-272 (HLF pretreated with inhibitor 1 h prior to TGF-β1) was “completely abolished”. Moreover, the “interaction of Smad3 with DNA, inhibitor alone” value in the test on Smad 3-SBE-272 (without TGF-β1, data not shown) was “did not affect”.
Regarding “Infestin-4: Kazal-type serine protease inhibitor domain 4 from Triatoma infestans, FXIIa inhibitor (SEQ ID NO: 33) (EVRNPCACFRNYVPVCGSDGKTYGNPCMLNCAAQTKVPGLKLVHEGRC; Triatoma infestans)”, the “prolonging activated partial thromboplastin time” value with FXIIa is listed as “approximately three-fold”.
